Results taken from the CheMixHub ionic liquid set.
Several values for one entry are separate records, joined by “and”; a condition that tells them apart may be missing. Identical values can stand only once.

Assay: xn = mol fraction of the nth substance listed

CCO + CCOP(=O)([O-])OCC.CC[N+]1(C)CCOCC1
100 kPa, x2 = 0
Details | viscosity [mPa·s]
293.15 K | 1.18
298.15 K | 1.11
303.15 K | 0.98
308.15 K | 0.89
313.15 K | 0.82
318.15 K | 0.75
323.15 K | 0.69
328.15 K | 0.65
333.15 K | 0.6
338.15 K | 0.56

CCO + C[N+](C)(C)CCC[N+]1(C)CCCCC1.N#C[N-]C#N.N#C[N-]C#N
100 kPa, x2 = 0
Details | viscosity [mPa·s]
293.15 K | 1.19
303.15 K | 0.991
313.15 K | 0.828
323.15 K | 0.705
333.15 K | 0.593

N[C@@H](Cc1c[nH]cn1)C(=O)O + CCCC[n+]1ccn(C)c1.F[B-](F)(F)F + O
viscosity [mPa·s], 100 kPa
Details | 293.15 K | 298.15 K | 303.15 K | 308.15 K | 313.15 K | 318.15 K
x1 = 0.0002714, x2 = 0.0003602 | 1.038 | 0.925 | 0.843 | 0.759 | 0.701 | 0.646
x1 = 0.0002725, x2 = 0.0007201 | 1.07 | 0.959 | 0.876 | 0.797 | 0.744 | 0.689
x1 = 0.0002736, x2 = 0.00108 | 1.101 | 0.991 | 0.912 | 0.838 | 0.787 | 0.733
x1 = 0.0004522, x2 = 0.0003601 | 1.041 | 0.927 | 0.845 | 0.761 | 0.703 | 0.648
x1 = 0.000454, x2 = 0.00072 | 1.073 | 0.962 | 0.879 | 0.8 | 0.747 | 0.692
x1 = 0.0004559, x2 = 0.00108 | 1.104 | 0.994 | 0.915 | 0.841 | 0.79 | 0.736
x1 = 0.0006329, x2 = 0.00036 | 1.044 | 0.93 | 0.848 | 0.764 | 0.706 | 0.651
x1 = 0.0006355, x2 = 0.0007198 | 1.076 | 0.965 | 0.882 | 0.803 | 0.75 | 0.695
x1 = 0.0006382, x2 = 0.001079 | 1.107 | 0.997 | 0.918 | 0.844 | 0.793 | 0.739
x1 = 0.0008136, x2 = 0.00036 | 1.047 | 0.933 | 0.851 | 0.767 | 0.709 | 0.654
x1 = 0.000817, x2 = 0.0007197 | 1.079 | 0.968 | 0.885 | 0.806 | 0.753 | 0.698
x1 = 0.0008203, x2 = 0.001079 | 1.11 | 1 | 0.921 | 0.847 | 0.796 | 0.742
x1 = 0.0009942, x2 = 0.0003599 | 1.05 | 0.936 | 0.854 | 0.77 | 0.712 | 0.657
x1 = 0.0009983, x2 = 0.0007196 | 1.082 | 0.971 | 0.888 | 0.809 | 0.755 | 0.7
x1 = 0.001002, x2 = 0.001079 | 1.113 | 1.003 | 0.924 | 0.849 | 0.799 | 0.745
x1 = 0.001175, x2 = 0.0003598 | 1.053 | 0.939 | 0.856 | 0.772 | 0.714 | 0.659
x1 = 0.00118, x2 = 0.0007194 | 1.085 | 0.974 | 0.89 | 0.811 | 0.758 | 0.703
x1 = 0.001185, x2 = 0.001079 | 1.116 | 1.006 | 0.927 | 0.852 | 0.802 | 0.748
x1 = 0.001355, x2 = 0.0003598 | 1.056 | 0.942 | 0.859 | 0.775 | 0.716 | 0.661
x1 = 0.001361, x2 = 0.0007193 | 1.088 | 0.976 | 0.893 | 0.814 | 0.76 | 0.705
x1 = 0.001366, x2 = 0.001079 | 1.119 | 1.008 | 0.929 | 0.855 | 0.804 | 0.75
x1 = 0.001536, x2 = 0.0003597 | 1.059 | 0.944 | 0.862 | 0.777 | 0.719 | 0.663
x1 = 0.001542, x2 = 0.0007192 | 1.091 | 0.979 | 0.896 | 0.816 | 0.763 | 0.707
x1 = 0.001548, x2 = 0.001078 | 1.122 | 1.011 | 0.932 | 0.857 | 0.806 | 0.752
x1 = 0.001716, x2 = 0.0003596 | 1.062 | 0.947 | 0.864 | 0.779 | 0.721 | 0.666
x1 = 0.001723, x2 = 0.000719 | 1.094 | 0.982 | 0.898 | 0.818 | 0.765 | 0.71
x1 = 0.00173, x2 = 0.001078 | 1.125 | 1.014 | 0.934 | 0.86 | 0.808 | 0.753

CCCCCCCC[P+](CC)(CC)CC.Cc1ncc([N+](=O)[O-])[n-]1 + COCCOCCOCCOCCOC
viscosity [mPa·s], 100 kPa
Details | 278.15 K | 283.15 K | 288.15 K | 293.15 K | 298.15 K | 303.15 K | 308.15 K | 313.15 K | 318.15 K | 323.15 K
x2 = 0 | 3660 | 2240 | 1410 | 920 | 623 | 435 | 313 | 231 | 174 | 135
x2 = 0.036 | 2730 | 1700 | 1090 | 722 | 495 | 350 | 255 | 189 | 145 | 113
x2 = 0.067 | 1990 | 1270 | 829 | 559 | 390 | 280 | 206 | 155 | 120 | 95
x2 = 0.115 | 1470 | 955 | 636 | 438 | 310 | 227 | 170 | 130 | 101 | 81
x2 = 0.233 | 651 | 446 | 311 | 223 | 166 | 126 | 98 | 78 | 62 | –
x2 = 0.3 | 375 | 262 | 187 | 137 | 103 | 80 | 64 | 51 | – | –
x2 = 0.399 | 200 | 145 | 107 | 81 | 64 | 50 | – | – | – | –
x2 = 0.5 | 113 | 86 | 66 | 51 | – | – | – | – | – | –
x2 = 0.598 | 62 | – | – | – | – | – | – | – | – | –

C[N+](C)(CCO)CCOCCO.[Cl-] + OCCO
101 kPa, x1 = 0.3333
Details | viscosity [mPa·s]
283.15 K | 242.4
288.15 K | 177.4
293.15 K | 131.9
298.15 K | 100.9
303.15 K | 78.8
308.15 K | 62.2
313.15 K | 49.8
318.15 K | 40.49
323.15 K | 33.3
328.15 K | 27.72
333.15 K | 23.38
338.15 K | 19.82
343.15 K | 17
348.15 K | 14.73
353.15 K | 12.94

CC(=O)[O-].CC[NH2+]CC + CS(C)=O
101 kPa
Details | electrical conductivity [S/m] | viscosity [mPa·s]
298.15 K, x1 = 0.0079 | 0.066 | –
298.15 K, x1 = 0.0285 | 0.157 | –
298.15 K, x1 = 0.0475 | 0.217 | –
298.15 K, x1 = 0.0697 | 0.282 | –
298.15 K, x1 = 0.0998 | 0.348 | –
298.15 K, x1 = 0.1 | – | 2.99
298.15 K, x1 = 0.199 | – | 3.72
298.15 K, x1 = 0.1997 | 0.44 | –
298.15 K, x1 = 0.299 | – | 5.59
298.15 K, x1 = 0.3011 | 0.492 | –
298.15 K, x1 = 0.3994 | 0.531 | –
298.15 K, x1 = 0.4 | – | 8.01
298.15 K, x1 = 0.5 | – | 11.94
298.15 K, x1 = 0.5008 | 0.459 | –
298.15 K, x1 = 0.601 | – | 15.88
298.15 K, x1 = 0.6022 | 0.433 | –
298.15 K, x1 = 0.682 | – | 21.1
298.15 K, x1 = 0.7005 | 0.394 | –
298.15 K, x1 = 0.798 | – | 32.6
298.15 K, x1 = 0.8019 | 0.367 | –
298.15 K, x1 = 0.899 | – | 44.2
298.15 K, x1 = 0.9017 | 0.335 | –
298.15 K, x2 = 0.005 | – | 58.3
298.15 K, x2 = 0.2023 | – | 13.67
298.15 K, x2 = 0.2814 | – | 12.66
298.15 K, x2 = 0.5897 | – | 8.7
298.15 K, x2 = 0.66 | – | 7.71
298.15 K, x2 = 0.7851 | – | 5.81
298.15 K, x2 = 0.971 | – | 2.53
303.15 K, x2 = 0.0253 | – | 13.36
303.15 K, x2 = 0.7253 | – | 5.92
303.15 K, x2 = 0.8406 | – | 4.41
303.15 K, x2 = 0.9248 | – | 3.13
308.15 K, x2 = 0.1535 | – | 10.52
308.15 K, x2 = 0.2814 | – | 9.46

Cc1ncc[nH]1 + CC[n+]1ccn(C)c1.[Cl-]
101.33 kPa, x2 = 0.667
Details | viscosity [mPa·s]
303.15 K | 394
313.15 K | 182.1
323.15 K | 101.5
333.15 K | 57.3
343.15 K | 38
353.15 K | 27

CC[n+]1ccn(C)c1.CO[PH](=O)[O-] + CS(C)=O
298.1 K, 100 kPa
Details | electrical conductivity
x1 = 0.006 | 0.01 S/m
x1 = 0.01 | 0.13 S/m
x1 = 0.017 | 0.37 S/m and 0.45 S/m
x1 = 0.025 | 0.51 S/m and 0.68 S/m
x1 = 0.044 | 0.79 S/m
x1 = 0.059 | 0.93 S/m
x1 = 0.078 | 1.05 S/m
x1 = 0.123 | 1.15 S/m
x1 = 0.188 | 1.19 S/m
x1 = 0.267 | 1.13 S/m
x1 = 0.335 | 1.03 S/m
x1 = 0.453 | 0.88 S/m
x1 = 0.585 | 0.75 S/m
x1 = 0.763 | 0.59 S/m
x1 = 1 | 0.44 S/m

CCO + CC[n+]1ccn(CCOC)c1.N#C[S-]
Details | viscosity [mPa·s]
308.15 K, 100 kPa, x2 = 0 | 0.902

CCO + CC[n+]1ccn(C)c1.COS(=O)(=O)[O-]
101 kPa, x2 = 0
Details | viscosity [mPa·s]
283.15 K | 1.44
293.15 K | 1.18
303.15 K | 0.98
313.15 K | 0.83
323.15 K | 0.7
